“Also recorded” adds a separate entry of the source. Read-outs that look alike come from different tables or passages of the source.
What was measured:
[1] = test system: S. mansoni vcp/p97 (Smp_018240); experiment: High-throughput screening (HTS) assay, Kinase-Glo, 10 μM single concentration; format: biochemical, Schistosoma mansoni; details: for Screen Inhibition: 10 μM compound, normalized to CB-5083, Fig. 4A; for inhibition of S. mansoni p97 function in the screen: high-throughput screen
Source text: Kinase-Glo (Promega, part K1214) was purchased from Promega. Microtiter plates (384 wells) were purchased from Perkin Elmer. All chemicals included in the UTSW library were sourced from commercial sources [ChemDiv (150,000 compounds), ChemBridge (125,500), ComGenex (22,000), Prestwick Chemical, (1,100) and TimTec (500)] or UT Southwestern chemists (https://www.utsouthwestern.edu/research/core-facilities/high-throughput-screening/libraries/). For initial screening, compounds were dispensed by Echo 555 robot for a final concentration of 10 μM (0.2% DMSO). Luminescence was read by EnVision multimode plate reader (Perkin-Elmer). Assay conditions were consistent between manual and high-throughput assays [10 μM ATP, 50 mM Tris (pH 7.5), 20 mM MgCl2, 1 mM EDTA, 0.5 mM tris(2-carboxyethyl)phosphine (TCEP)]. The plates were then incubated for 50 min at room temperature before addition of Kinase-Glo reagent and further incubation in the dark for 10 minutes before reading luminescence. […] Hit compounds were validated using a dose-response curve (19.8 μM, 9.92 μM, 4.96 μM, 3.72 μM, 2.48 μM, 1,24 μM, 0.619 μM, 0.342 μM, 0.256 μM, 0.171 μM, 0.0854 μM, 0.0427 μM, and 0 μM) in triplicate. Compounds were also subjected to a counter screen using a dose-response curve against the full-length human p97 enzyme to determine preliminary selectivity.

[2] = target: S. mansoni p97 (Smp_018240) (Schistosoma mansoni, UniProt G4M0P7); experiment: biochemical; details: for IC50: read-out: S. mansoni IC50; for Fold Selectivity: H. sapiens vs S. mansoni p97 IC50
Chain of S. mansoni p97 (Smp_018240) (G4M0P7 entry or part of it): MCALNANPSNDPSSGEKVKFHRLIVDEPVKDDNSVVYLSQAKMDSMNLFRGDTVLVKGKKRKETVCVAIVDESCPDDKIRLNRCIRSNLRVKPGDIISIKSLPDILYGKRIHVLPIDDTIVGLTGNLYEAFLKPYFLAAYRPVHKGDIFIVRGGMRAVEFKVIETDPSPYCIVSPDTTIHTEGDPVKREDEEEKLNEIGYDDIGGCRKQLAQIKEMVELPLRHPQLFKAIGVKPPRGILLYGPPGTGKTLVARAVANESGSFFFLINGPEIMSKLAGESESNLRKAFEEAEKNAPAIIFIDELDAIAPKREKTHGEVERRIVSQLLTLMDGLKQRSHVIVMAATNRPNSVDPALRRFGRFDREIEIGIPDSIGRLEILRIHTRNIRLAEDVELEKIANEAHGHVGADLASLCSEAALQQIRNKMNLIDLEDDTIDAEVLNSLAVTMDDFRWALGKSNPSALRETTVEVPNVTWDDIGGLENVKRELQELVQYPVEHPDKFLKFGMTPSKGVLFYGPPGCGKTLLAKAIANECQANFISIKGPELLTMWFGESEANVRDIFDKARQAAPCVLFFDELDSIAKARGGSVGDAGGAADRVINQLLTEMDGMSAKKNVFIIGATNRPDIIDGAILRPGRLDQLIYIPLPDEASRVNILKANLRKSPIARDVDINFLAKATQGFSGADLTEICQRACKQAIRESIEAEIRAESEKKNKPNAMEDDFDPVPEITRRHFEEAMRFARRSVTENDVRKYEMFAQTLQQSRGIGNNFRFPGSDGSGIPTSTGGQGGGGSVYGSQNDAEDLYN
Description: E. coli BL21 (DE3) containing the desired plasmid were grown in LB medium containing […] kanamycin while shaking at 37 °C to an OD600 of 0.6–0.8. The temperature was reduced to 18°C and 0.8 mM isopropyl-beta-D-thiogalactopyranoside (IPTG) was added. The bacterial culture was harvested 16hr later by centrifugation. The resulting pellet was suspended in 60 mL lysis buffer/2L bacterial culture [20 mM Tris (pH 7.4), 300 mM NaCl, 5 mM MgCl2, 20 mM imidazole, 1% Triton X-100, 1 mg/mL lysozyme, 10% glycerol, 3 mM β-mercaptoethanol, 0.2 mM PMSF, and protease inhibitor tablet (Roche)]. […] The lysate was centrifuged at 40,000 × rpm for 35 min at 4°C. The resulting supernatant was incubated with Ni-NTA beads equilibrated to lysis buffer for 1 hr at 4°C before being loaded onto a gravity column. The bead bed was washed with wash buffer [20 mM Tris (pH 7.4), 500 mM NaCl, 5 mM MgCl2, 40 mM imidazole, 0.05% Triton X-100, 10% glycerol, 3 mM β-mercaptoethanol, 0.2 mM PMSF, 0.001 mg/mL Aprotinin, and 0.002 mg/mL Leupeptin], then eluted in the same buffer with 250 mM imidazole in wash buffer. Fractions containing p97 were concentrated using Pierce Protein Concentrators (100k MWCO) and loaded onto a gel-filtration column (Superdex 200PG) and eluted using SEC buffer [20 mM Tris (pH 7.4), 180 mM NaCl, 5 mM MgCl2, and 10% glycerol] at 0.5 mL/min flow rate on a BioRad NGC Chromatography System. Fractions corresponding to an apparent molecular weight of 500 – 600 kDa were collected and analyzed by 4–20% SDS/PAGE to evaluate purity. Concentration was determined using a BSA standard. Fractions containing purified protein were aliquoted, snap frozen in liquid nitrogen, and stored at −80 °C until use.
For manual ATP consumption assays, 1 μM p97 was incubated with 1% DMSO or inhibitor (1% DMSO final) in assay buffer [50 mM Tris (pH 7.5), 20 mM MgCl2, 1 mM EDTA, 0.5 mM tris(2-carboxyethyl)phosphine (TCEP)] for 5 minutes prior to the addition of 20 μM ATP in a 384-well plate for a total reaction volume of 10 μL, and a final concentration of 500nM enzyme and 10 μM ATP. The reaction was allowed to proceed for 50 minutes at room temperature before adding equivalent volume of Kinase-Glo Plus reagent (Promega), and a further incubation of 10 minutes in the dark.
IC50 values were calculated using GraphPad Prism.

H. sapiens p97 (P55072) = target: T1, H. sapiens p97 (P55072) (Homo sapiens, UniProt P55072); experiment: p97 ATPase activity, ATP consumption assay (Kinase-Glo), IC50 / counter screen; format: biochemical
T1 construct: 6xHis (C); made in house; host or cells: E. coli BL21 (DE3)
T1 sequence (P55072 whole entry): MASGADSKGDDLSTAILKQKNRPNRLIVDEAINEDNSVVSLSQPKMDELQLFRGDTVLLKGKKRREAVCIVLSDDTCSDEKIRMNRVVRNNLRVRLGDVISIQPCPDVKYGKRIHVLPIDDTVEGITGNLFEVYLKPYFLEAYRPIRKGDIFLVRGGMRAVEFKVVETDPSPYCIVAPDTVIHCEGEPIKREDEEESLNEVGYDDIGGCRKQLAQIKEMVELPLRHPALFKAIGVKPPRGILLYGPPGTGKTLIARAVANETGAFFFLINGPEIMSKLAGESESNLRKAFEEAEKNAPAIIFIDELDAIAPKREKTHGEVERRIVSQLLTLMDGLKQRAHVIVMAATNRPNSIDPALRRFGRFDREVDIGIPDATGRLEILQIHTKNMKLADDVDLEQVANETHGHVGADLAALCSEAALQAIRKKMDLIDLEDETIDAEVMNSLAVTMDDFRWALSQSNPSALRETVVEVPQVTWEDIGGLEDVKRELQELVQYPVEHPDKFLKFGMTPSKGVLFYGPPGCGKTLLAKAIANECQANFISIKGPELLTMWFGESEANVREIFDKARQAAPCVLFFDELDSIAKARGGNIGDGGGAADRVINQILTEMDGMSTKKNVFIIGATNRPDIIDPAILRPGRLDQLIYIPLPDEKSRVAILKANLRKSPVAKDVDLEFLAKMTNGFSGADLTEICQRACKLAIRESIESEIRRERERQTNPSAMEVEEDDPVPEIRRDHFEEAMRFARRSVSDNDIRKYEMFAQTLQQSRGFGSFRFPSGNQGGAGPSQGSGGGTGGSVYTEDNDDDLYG

adult S. mansoni worms = experiment: Treatment of adult S. mansoni worms in culture with inhibitors (attachment to tissue culture substrate, morphology; single 10 μM and dose-response EC50); format: cell-based, Schistosoma mansoni; details: for EC50: Schistosoma mansoni, read-out: S. mansoni EC50; for effect on adult worms: benzoxazole propiolamide series, treated 72 hours, monitored until D5
Description: Adult S. mansoni (NMRI strain) (6–7 weeks post-infection) worms were harvested from infected female Swiss Webster mice by hepatic portal vein perfusion using 37°C DMEM (Mediatech, Manassas, VA), 8% Horse Serum, and heparin.
Roughly 5 adult worm pairs were placed in 3mL Basch medium in a 12-well culture vessel, and incubated at 37°C, 5% CO2 for the length of the experiment. Compound was administered at D0, D1, and D2, media and drug refreshed every 24 hr. Worms were then allowed to remain in culture until D5, where a final assessment of worm attachment to tissue culture substate was made by light microscopy. Observations on movement and morphology were also recorded. A negative control (0.1% DMSO) and positive control (PZQ; 10 μM in 0.1% DMSO) were included in each experiment, and each experiment was repeated in triplicate for validation. For compounds that caused complete detachment in replicate experiments, the treatment was expanded to three concentrations (10 μM, 5 μM, and 1 μM) following the same treatment schedule and controls as detailed above. […] Each titration experiment was performed in triplicate according to the treatment regimen described above, using DMSO and PZQ as appropriate controls. Morphologies and motility were assessed by light microscopy, and dose-response curves were calculated using the primary readout of parasite attachment to tissue culture substrate in GraphPad Prism. […]
[…] Values were calculated using Prism.

HepG2 cells = experiment: HepG2 cytotoxicity assay (Cell Titer Glo 2.0); format: cell-based, human; details: Homo sapiens
Description: HepG2 cells (ATCC) were plated at 2500 cells/well in 50 μL/well, dispersing cells using a 25g needle to break up clumps prior to plating. Plates were incubated for 24hr at 37C, 5% CO2. Following 24hr, 50 μL media containing 0.6% DMSO was added to a set of wells on one plate. The plate and Cell Titer Glo 2.0 reagent were brought to RT. A T=0 read was taken by adding 40 μL reagent/well, rocking the plate at 100 rpm for 2 min, then reading luminescence ~10 min later. […] 50 μL 2x concentrated compound was added to wells containing cells in 50 μL 24 hr after plating. Concentrations were tested in triplicate at following values: 30, 10, 3.3, 1.1, 0.37, 0.12, and 0.04 μM. Plates were incubated for 72 hr at 37C, 5% CO2. Following equilibration to room temperature, 40 μL undiluted reagent was added to each well, the plate rocked at 100 rpm for 2 min and then read for luminescent signal ~10 min later.
Values are plotted in excel and the 50% point determined by interpolation. Values were revisualized in Prism.

[3] = Smp97, re-tested screen compounds, 100 μM-1 nM, Fig. 4A
[4] = Hsp97, re-tested screen compounds, 100 μM-1 nM, Fig. 4A
[5] = adult parasites, fraction of worms attached, 72 hours of drug treatment, in culture until D5, 50 μM - 10 nM, Suppl. Fig. 9C
[6] = Sm p97, 100 μM – 1 nM, Suppl. Fig. 9C
[7] = Hs p97, 100 μM – 1 nM, Suppl. Fig. 9C

Structure (SMILES)	Screen Inhibition [1] [%]	inhibition of S. mansoni p97 function in the screen [1]	IC50 [2, 3] [µM]	IC50 (H. sapiens p97 (P55072); [4]) [µM]	EC50 (adult S. mansoni worms) [µM]	effect on adult worms (adult S. mansoni worms; 10 μM)	IC50 ([2]; p97 enzyme, Suppl. Fig. 11D) [µM]	IC50 (H. sapiens p97 (P55072); p97 enzyme, Suppl. Fig. 11D) [µM]	EC50 (adult S. mansoni worms; [5]) [µM]	Fold Selectivity ([2]; Suppl. Fig. 9C)	IC50 [2, 6] [µM]	IC50 (H. sapiens p97 (P55072); [7]) [µM]	GI50 (HepG2 cells; HepG2, 72 h) [µM]	IC50 (HepG2 cells; HepG2, 72 h) [µM]	GI50 (HepG2 cells; HepG2, read-out: HepG2 GI50) [µM]	IC50 (HepG2 cells; HepG2, read-out: HepG2 IC50) [µM]	also measured
O=C(C=Cc1ccccc1)Nc1ccc2oc(-c3ccccc3)nc2c1 [Compound 135, N-(2-phenylbenzo[d]oxazol-5-yl)cinnamamide]	1.1	inactive	> 100	> 100													
O=C(C#Cc1ccccc1)Nc1ccc2oc(-c3ccncc3)nc2c1 [Compound 242, 3-phenyl-N-(2-(pyridin-4-yl)benzo[d]oxazol-5-yl)propiolamide]	47				9.9	led to death in adult parasites; also recorded: ultimately leading to their death	1.4 ± 0.11	12 ± 0.31									time to detachment of adult worms in culture (adult S. mansoni worms; 10 μM): ≤ 48 h; Fold Selectivity ([2]; Suppl. Fig. 11D): 8.6
O=C(C#Cc1ccccc1)Nc1ccc2oc(-c3cccnc3)nc2c1 [Compound 244, 3-phenyl-N-(2-(pyridin-3-yl)benzo[d]oxazol-5-yl)propiolamide]	16				25	did not have any adverse effects on worm health and survival	> 100	> 100									activity on the enzyme ([2]; schistosome p97): minimal activity on the enzyme
O=C(C#Cc1ccccc1)Nc1ccc2oc(-c3ccccc3)nc2c1 [Compound 245, 3-phenyl-N-(2-phenylbenzo[d]oxazol-5-yl)propiolamide]	36				12	did cause detachment, it did not lead to parasite death	3.8 ± 0.19	> 100									Fold Selectivity ([2]; Suppl. Fig. 11D): > 30
O=C(/C=C\c1ccccc1)Nc1ccc2oc(-c3ccccc3)nc2c1 [Compound 324, (Z)-3-phenyl-N-(2-phenylbenzo[d]oxazol-5-yl)acrylamide]	1.1	inactive	> 100	> 100													
O=C(CCc1ccccc1)Nc1ccc2oc(-c3ccccn3)nc2c1 [Compound 326, 3-phenyl-N-(2-(pyridin-2-yl)benzo[d]oxazol-5-yl)propanamide]	2.2	inactive	> 100	> 100													
Cc1cccnc1-c1nc2cc(NC(=O)C#Cc3ccncc3)ccc2o1 [Compound 804, N-(2-(3-methylpyridin-2-yl)benzo[d]oxazol-5-yl)-3-(pyridin-4-yl)propiolamide]									0.76	0.70	0.19 ± 0.063	0.14 ± 0.062	0.93	1.2	0.93	1.2	
Cc1ccnc(-c2nc3cc(NC(=O)C#Cc4ccncc4)ccc3o2)c1 [Compound 805, N-(2-(4-methylpyridin-2-yl)benzo[d]oxazol-5-yl)-3-(pyridin-4-yl)propiolamide]									2	0.80	0.17 ± 0.092	0.14 ± 0.078	1.2	1.6	1.2	1.6	
Cc1ccc(-c2nc3cc(NC(=O)C#Cc4ccncc4)ccc3o2)nc1 [Compound 806, N-(2-(5-methylpyridin-2-yl)benzo[d]oxazol-5-yl)-3-(pyridin-4-yl)propiolamide]									3.2	1.1	0.47 ± 0.17	0.51 ± 0.16	1.5	1.8	1.5	1.8	
Cc1cccc(-c2nc3cc(NC(=O)C#Cc4ccncc4)ccc3o2)n1 [Compound 807, N-(2-(6-methylpyridin-2-yl)benzo[d]oxazol-5-yl)-3-(pyridin-4-yl)propiolamide]									1.8	0.70	0.67 ± 0.17	0.49 ± 0.057	1.1	1.4	1.1	1.4	

Source: publication doi:10.1101/2025.03.14.643303, “A genome-scale drug discovery pipeline uncovers new therapeutic targets and a unique p97 allosteric binding site in Schistosoma mansoni” (bioRxiv, 2025)
